Data on three molecules can be found in patent EP0282292B1, “Improved chelator for anaerobic sealants” (LOCTITE (IRELAND) Ltd., priority 1987, dated 1988).

For data set [1] the following is noted: anaerobic sealant formulation with acidic components.
The nature of data set [2]: Stability at 82°C (time to first gellation) of curable formulation spiked with copper. To be noted: for level of chelator able to counteract added copper: 0.5 ppm of added copper; for stability (time to first gellation): 82°C, spiked with copper after one week at room temperature, supernatant only.

SMILES strings stand for the structures. Like-named read-outs stand apart in the source and are kept apart here.

Take `O=C([O-])CN(CCN(CC(=O)[O-])CC(=O)[O-])CC(=O)[O-].[Na+].[Na+].[Na+].[Na+]` [EDTA Na₄, ethylenediaminetetraacetic acid tetrasodium salt]: the “time to precipitation from solution after addition” value in data set [1] was at most 24 h.

As to `CC(O)CN(CCN(CC(C)O)CC(C)O)CC(C)O` (stereo not shown) [EDTPA, tetrakis-(2-hydroxy-propyl)-ethylenediamine], in data set [2], the “level of chelator able to counteract added copper” value worked out at 300 ppm and the “stability (time to first gellation)” value is given as “no loss of chelation efficiency on aging”.

In the case of `O=C([O-])CN(CCO)CCN(CC(=O)[O-])CC(=O)[O-].[Na+].[Na+].[Na+]` [HEDTA Na₃, N-hydroxyethylenediaminetriacetic acid trisodium salt], under “1% Maleic Acid in PEGMA”, the “chelator concentration, Sampled after 0.5hr. standing-supernatant liquid taken” value came to 110 ppm; the “chelator concentration, Stirred 0.5hr. mixture sampled” value is given as 826 ppm; the “chelator concentration, supernatant after 4 days standing” value was found to be 175 ppm; the “chelator concentration, supernatant after 5 days standing” value was determined as 180 ppm. For the setting “3% Saccharin in PEGMA”, the “chelator concentration, Sampled after 0.5hr. standing-supernatant liquid taken” value came out at 65 ppm; the “chelator concentration, Stirred 0.5hr. mixture sampled” value was determined as 904 ppm; the “chelator concentration, supernatant after 4 days standing” value is 69 ppm; the “chelator concentration, supernatant after 5 days standing” value is 75 ppm. In data set [2], the “level of chelator able to counteract added copper” value is reported as 300 ppm and the “stability (time to first gellation)” value is “no loss of chelation efficiency on aging”.
